Results taken from US11077100B2, “Tetrahydroquinoline derivatives as P2X7 receptor antagonists” (RaQualia Pharma Inc., priority 2017, dated 2021).

Key:
rat P2X7 = rat P2X7 (Rattus norvegicus (Rat), UniProt Q64663); experiment: Rat P2X7 functional assay (Ca2+ influx, Fluo-4, FDSS); assay type: cell-based; settings: HEK293 cells stably expressing rat P2X7; BzATP final 10 microM; 7-point dose-response; read-out: Antagonistic activities with respect to the rat P2X7 receptor (IC50)
Description: Rat P2X7 Functional Assay
The functional activity of compounds was determined by measuring changes in intracellular calcium concentration using a Ca^2+-sensitive fluorescent dye, Fluo-4 (Molecular Probes). The changes in fluorescent signal were monitored by the cell imaging technology by Hamamatsu Photonics's Functional Drug Screening System (FDSS). Increases in intracellular Ca^2+ concentration were readily detected upon activation with BzATP.
HEK293 cells stably expressing rat P2X7 (GenBank accession number NM_019256) were grown in Corning CellBIND cell culture flasks, in a 5% CO2 humidified incubator to about 80% confluence. Media composition consisted of Dulbecco's Modified Eagle Medium (high glucose), 10% fetal bovine serum ([…]), 100 units/[…] Penicillin, 100 microg/mL Streptomycin and 250 microg/mL Geneticine.
1. […] Plate-out HEK293-rat P2X7 cells (40 microL medium containing 5,000 cells per well) into poly-D-lysine coated 384-well plates (BD Falcon) at 24 h prior to assay.
2. Incubate at 37° C. in 5% CO2.
3. Incubate the plate at 37° C. in 5% CO2 for 1 h.
5. Test compounds were prepared at 100× the test concentration in DMSO by serial dilution with Biomek-FX liquid handling instrument. 33× diluted compound solutions in assay buffer were prepared in intermediate compound plate with Biomek-NX liquid handling instrument. A further 3× dilution occurred in below steps 6 and 7.
6. Add 20 microL of 33× diluted compound solutions into each well and leave the plate for 10 min under the dark at room temperature.
7. Measure activity by FDSS as follows: • Set the assay plate on the stacker of FDSS. • Start the detection of fluorescence intensity at 540 nm by 480 nm exicitation. • After 30 seconds, add 20 microL of assay buffer containing 30 microM BzATP (final 10 microM).
IC50 values for compounds of the present invention were determined from 7-point dose-response studies. Curves were generated using the average of duplicate wells for each data point. Finally, the IC50 values are calculated with the best-fit dose curve determined by XLfit (ID Business Solutions Ltd.).

human P2X7 = human P2X7 (Homo sapiens (Human), UniProt Q99572); experiment: Human P2X7 functional assay (Ca2+ influx, Fluo-4, FDSS); assay type: cell-based; settings: antagonistic activity with respect to the human P2X7 receptor; BzATP final concentration 80 microM
In short: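 HEK293 cells stably expressing C-terminally FLAG-tagged human P2X7, loaded with Fluo-4. Compounds were preincubated for 10 min at room temperature, then 80 μM BzATP (final) was added and Ca2+ fluorescence read at 540 nm (480 nm excitation) by FDSS. IC50 values come from 7-point curves, duplicate wells.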

Sequence of human P2X7 (Q99572 whole entry): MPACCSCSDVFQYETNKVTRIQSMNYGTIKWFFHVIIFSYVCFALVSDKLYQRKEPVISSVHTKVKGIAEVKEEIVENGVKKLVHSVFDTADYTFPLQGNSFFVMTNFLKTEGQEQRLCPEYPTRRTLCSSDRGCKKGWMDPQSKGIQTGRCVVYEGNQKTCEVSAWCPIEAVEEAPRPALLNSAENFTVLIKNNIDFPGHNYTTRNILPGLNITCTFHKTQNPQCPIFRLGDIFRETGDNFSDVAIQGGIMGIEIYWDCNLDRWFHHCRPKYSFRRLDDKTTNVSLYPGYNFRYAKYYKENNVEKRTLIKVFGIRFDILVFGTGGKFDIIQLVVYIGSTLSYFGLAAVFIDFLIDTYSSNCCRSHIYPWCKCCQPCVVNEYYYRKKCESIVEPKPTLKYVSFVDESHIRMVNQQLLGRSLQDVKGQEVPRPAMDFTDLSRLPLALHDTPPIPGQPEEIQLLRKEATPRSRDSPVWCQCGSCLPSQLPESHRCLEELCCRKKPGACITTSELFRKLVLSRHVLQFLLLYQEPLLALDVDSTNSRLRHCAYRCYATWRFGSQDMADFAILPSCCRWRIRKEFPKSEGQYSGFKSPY
Sequence of rat P2X7 (Q64663 whole entry): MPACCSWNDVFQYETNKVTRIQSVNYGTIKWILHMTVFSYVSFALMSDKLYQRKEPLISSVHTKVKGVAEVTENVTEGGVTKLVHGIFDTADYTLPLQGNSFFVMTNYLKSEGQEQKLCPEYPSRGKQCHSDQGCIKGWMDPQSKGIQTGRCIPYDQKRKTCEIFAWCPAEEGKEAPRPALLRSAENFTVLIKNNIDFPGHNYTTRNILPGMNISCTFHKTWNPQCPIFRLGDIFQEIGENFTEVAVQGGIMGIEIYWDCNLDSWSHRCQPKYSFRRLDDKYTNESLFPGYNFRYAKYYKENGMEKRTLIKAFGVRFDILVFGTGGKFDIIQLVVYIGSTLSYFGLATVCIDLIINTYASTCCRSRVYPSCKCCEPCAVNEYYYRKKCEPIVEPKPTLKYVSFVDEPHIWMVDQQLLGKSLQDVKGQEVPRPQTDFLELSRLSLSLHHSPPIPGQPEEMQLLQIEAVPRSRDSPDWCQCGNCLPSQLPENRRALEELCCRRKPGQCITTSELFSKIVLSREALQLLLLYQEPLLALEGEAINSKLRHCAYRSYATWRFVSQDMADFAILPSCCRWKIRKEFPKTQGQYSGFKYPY

| SMILES | IC50 (rat P2X7) [µM] | IC50 (human P2X7) [µM] |
| --- | --- | --- |
| COC[C@]1(O)CC[C@@](F)(C(=O)NCc2ccc(Cl)cc2Cl)c2cccnc21 (relative stereo) [Example 41, (5S*,8S*)-N-(2,4-dichlorobenzyl)-5-fluoro-8-hydroxy-8-(methoxymethyl)-5,6,7,8-tetrahydro-quinoline-5-carboxamide] | < 1 | < 0.05 |
| COC[C@]1(O)CC[C@@](F)(C(=O)NCc2ccc(F)cc2Cl)c2cccnc21 (relative stereo) [Example 42, (5S*,8S*)-N-(2-chloro-4-fluoro-benzyl)-5-fluoro-8-hydroxy-8-(methoxymethyl)-5,6,7,8-tetra-hydroquinoline-5-carboxamide] | < 1 | < 0.05 |
| O=C(NCc1ccc(Cl)cc1Cl)[C@]1(F)CC[C@@](O)(CN2CC(O)C2)c2ncccc21 (relative stereo) [Example 51, (5S*,8R*)-N-(2,4-dichlorobenzyl)-5-fluoro-8-hydroxy-8-((3-hydroxyaze-tidin-1-yl)methyl)-5,6,7,8-tetrahydro-quinoline-5-carboxamide] | < 1 | < 0.05 |
| O=C(NCc1c(Cl)cc(Cl)cc1CO)C1CCC(O)c2ncccc21 (stereo not shown) [Example 9, N-(2,4-dichloro-6-(hydroxy-methyl)benzyl)-8-hydroxy-5,6,7,8-tetrahydroquinoline-carboxamide] | < 1 | – |
| NC(=O)CC1CCC(C(=O)NCc2cccc(C(F)(F)F)c2Cl)c2cccnc21 (stereo not shown) [Example 32, (2-amino-2-oxoethyl)-N-(2-chloro-3-(trifluoro-methyl)benzyl)-5,6,7,8-tetra-hydroquinoline-5-carboxamide] | < 1 | – |
| Cc1cc(Cl)cc(Cl)c1CNC(=O)[C@@]1(F)CC[C@@H](O)c2ncccc21 [Example 126, (5R,8R)-N-(2,4-dichloro-6-methylbenzyl)-5-fluoro-8-hydroxy-5,6,7,8-tetrahydroquinoline-5-carboxamide] | < 1 | – |
| Cc1cc(Cl)cc(Cl)c1CNC(=O)[C@]1(F)CC[C@H](O)c2ncccc21 [Example 127, (5S,8S)-N-(2,4-dichloro-6-methylbenzyl)-fluoro-8-hydroxy-5,6,7,8-tetrahydroquinoline-5-carboxamide] | < 1 | – |
| O=C(NCc1ccc(F)cc1C(F)(F)F)[C@]1(F)CC[C@H](O)c2ncccc21 [Example 144, (5S,8S)-5-fluoro-N-(4-fluoro-2-(trifluoromethyl)benzyl)-8-hydroxy-5,6,7,8-tetrahydroquinoline-5-carboxamide] | < 1 | – |
| O=C(NCc1c(F)cc(Cl)cc1Cl)[C@]1(F)CC[C@H](O)c2ncccc21 [Example 152, (5S,8S)-N-(2,4-dichloro-6-fluorobenzyl)-5-fluoro-8-hydroxy-5,6,7,8-tetrahydroquinoline-5-carboxamide] | < 1 | – |
| Cc1cccc(Cl)c1CNC(=O)[C@]1(F)CC[C@H](O)c2ncccc21 [Example 161, (5S,8S)-N-(2-chloro-6-methylbenzyl)-5-fluoro-8-hydroxy-5,6,7,8-tetrahydroquinoline-5-carboxamide] | < 1 | – |
| O=C(NCc1ccc(F)c(F)c1Cl)[C@]1(F)CC[C@H](O)c2ncccc21 [Example 174, (5S,8S)-N-(2-chloro-3,4-difluorobenzyl)-5-fluoro-8-hydroxy-5,6,7,8-tetrahydroquinoline-5-carboxamide] | < 1 | – |
| O=C(NCc1cccc(C(F)(F)F)c1F)[C@]1(F)CC[C@H](O)c2ncccc21 [Example 175, (5S,8S)-5-fluoro-N-(2-fluoro-3-(trifluoromethyl)benzyl)-8-hydroxy-5,6,7,8-tetrahydroquinoline-5-carboxamide] | < 1 | – |
| O=C(NCc1ccc(C(F)(F)F)cc1Cl)[C@]1(F)CC[C@H](O)c2ncccc21 [Example 187, (5S,8S)-N-(2-chloro-4-(trifluoromethyl)benzyl)-5-fluoro-8-hydroxy-5,6,7,8-tetrahydroquinoline-5-carboxamide] | < 1 | – |
| C[C@]1(O)CC[C@@](F)(C(=O)NCc2c(F)cc(Cl)cc2Cl)c2cccnc21 [Example 265, (5S,8S)-N-(2,4-dichloro-6-fluorobenzyl)-5-fluoro-8-hydroxy-8-methyl-5,6,7,8-tetrahydroquinoline-5-carboxamide] | < 1 | – |
| C[C@]1(O)CC[C@@](F)(C(=O)NCc2c(F)cc(F)cc2Cl)c2cccnc21 [Example 266, (5S,8S)-N-(2-chloro-4,6-difluorobenzyl)-5-fluoro-8-hydroxy-8-methyl-5,6,7,8-tetrahydroquinoline-5-carboxamide] | < 1 | – |
| C[C@]1(O)CC[C@@](F)(C(=O)NCc2ccc(Cl)c(F)c2F)c2cccnc21 [Example 267, (5S,8S)-N-(4-chloro-2,3-difluorobenzyl)-5-fluoro-8-hydroxy-8-methyl-5,6,7,8-tetrahydroquinoline-5-carboxamide] | < 1 | – |

Other lines, results leading:

| IC50 (rat P2X7) [µM] | IC50 (human P2X7) [µM] | SMILES |
| --- | --- | --- |
| < 1 | – | C[C@]1(O)CC[C@@](F)(C(=O)NC2CC2c2ccc(Cl)cc2Cl)c2cccnc21 (stereo partly drawn) [Example 273, (5S,8S)-N-((trans)-2-(2,4-dichlorophenyl)cyclopropyl)-5-fluoro-8-hydroxy-8-methyl-5,6,7,8-tetrahydroquinoline-5-carboxamide] |
| – | 1 to 3 | CN(CCO)C[C@@]1(O)CC[C@](F)(C(=O)NCc2ccc(Cl)cc2Cl)c2cccnc21 [Example 278, (5R,8S)-N-(2,4-dichlorobenzyl)-5-fluoro-8-hydroxy-8-(((2-hydroxyethyl) (methyl)amino)methyl)-5,6,7,8-tetrahydroquinoline-5-carboxamide] |
| – | 1 to 3 | O=C1CO[C@@]2(CC[C@](F)(C(=O)NCc3ccc(Cl)cc3Cl)c3cccnc32)CN1 [Example 293, (2S,5′R)-N-(2,4-dichlorobenzyl)-5′-fluoro-5-oxo-6′,7′-dihydro-5′H-spiro [morpholine-2,8′-quinoline]-5′-carboxamide] |
| – | 1 to 3 | Cc1cnc2c(c1)[C@](F)(C(=O)NCc1ccc(Cl)cc1Cl)CC[C@@]2(O)CO [Example 325, (5S,8S)-N-(2,4-dichlorobenzyl)-5-fluoro-8-hydroxy-8-(hydroxymethyl)-3-methyl-5,6,7,8-tetrahydroquinoline-5-carboxamide] |
| – | 0.301 to 1 | O=C(NCCc1ccc(Cl)cc1Cl)[C@]1(F)CC[C@@](O)(CO)c2ncccc21 [Example 330, (5S,8S)-N-(2,4-dichlorophenethyl)-5-fluoro-8-hydroxy-8-(hydroxymethyl)-5,6,7,8-tetrahydroquinoline-5-carboxamide] |
| – | 0.05 to 0.1 | O=C(NC1CC1c1ccc(Cl)cc1Cl)[C@]1(F)CC[C@@](O)(CO)c2ncccc21 (stereo partly drawn) [Example 331, (5S,8S)-N-((trans)-2-(2,4-dichlorophenyl)cyclopropyl)-5-fluoro-8-hydroxy-8-(hydroxymethyl)-5,6,7,8-tetrahydroquinoline-5-carboxamide] |
| – | 1 to 3 | O=C(NCC1(c2ccc(Cl)cc2Cl)CCOCC1)[C@]1(F)CC[C@@](O)(CO)c2ncccc21 [Example 332, (5S,8S)-N-((4-(2,4-dichlorophenyl)tetrahydro-2H-pyran-4-yl)methyl)-5-fluoro-8-hydroxy-8-(hydroxymethyl)-5,6,7,8-tetrahydroquinoline-5-carboxamide] |
| < 1 | – | CO[C@H]1CC[C@@](F)(C(=O)NCc2c(F)cc(Cl)cc2Cl)c2cccnc21 [Example 335, (5S,8S)-N-(2,4-dichloro-6-fluorobenzyl)-5-fluoro-8-methoxy-5,6,7,8-tetrahydroquinoline-5-carboxamide] |
| – | 0.101 to 0.3 | O=C(NCc1ccc(Cl)cc1Cl)[C@@]1(F)CC[C@@H](OCCO)c2ncccc21 [Example 348, (5R,8R)-N-(2,4-dtchlorobenzyl)-5-fluoro-8-(2-hydroxyethoxy)-5.6,7,8-tetrahydroquinoline-5-carboxamide] |
| < 1 | – | CS(=O)(=O)C1CC[C@@](F)(C(=O)NCc2ccc(Cl)cc2Cl)c2cccnc21 (stereo partly shown) [Example 350] |
| – | 0.05 to 0.1 | O=C(NCc1ccc(Cl)cc1Cl)[C@@]1(F)CC[C@H](F)c2ncccc21 [Example 353, (5R,8S)-N-(2,4-dichlorobenzyl)-5,8-difluoro-5,6,7,8-tetrahydroquinoline-5-carboxamide] |
| – | 0.05 to 0.1 | O=C(NCc1cccc(Cl)c1Cl)[C@@]1(F)CC[C@H](F)c2ncccc21 [Example 354, (5R,8S)-N-(2,3-dichlorobenzyl)-5.8-difluoro-5,6,7,8-tetrahydroquinaline-5-carboxamide] |
